This note sets out measurements from patent US20050038077A1, “Tablet containing 3-[(2-{[4-(hexyloxycarbonylamino-imino-methyl)-phenylamino]-methyl}-1-methyl-1H- benzimidazol-5-carbonyl)-pyridin-2-yl-amino]-propionic acid ethylester or the salts thereof” (Boehringer Ingelheim International GmbH, priority 2003, published 2005).

This data set can be described thus: first clinical trials, oral administration, plasma levels. Format: in vivo.
[1] abbreviates: conventional tablets containing the compound of formula (I), first clinical trials.

SMILES strings stand for the structures.

For the molecule `CCCCCCOC(=O)NC(=N)c1ccc(NCc2nc3cc(C(=O)N(CCC(=O)OCC)c4ccccn4)ccc3n2C)cc1` [compound of formula (I), ethyl 3-[(2-{[4-(hexyloxycarbonylaminoiminomethyl)phenylamino]methyl}-1-methyl-1H-benzimidazole-5-carbonyl)pyridin-2-ylamino]propionate], the malabsorption entry (administered as an oral solution) is recorded as “no instances of malabsorption have been observed”. Also, the “variability of the plasma level patterns” value (administered as an oral solution, compared with conventional tablets) was “significantly lower”. Moreover, under setting [1], the malabsorption result is recorded as “individual cases of malabsorption” and the “variability of plasma levels” value is recorded as “highly variable plasma levels”.
